The source of these data is US20130243794A1 (priority 2010, published 2013).

“Also recorded” adds a separate entry of the source.

One data set concerns baboons. Particulars: in vivo.
A further data set relates to Bacillus anthracis. The arrangement: species or system baboons (Papio c. cynocephalus). Particulars: in vivo.

Consider Shiga toxin 1 [ST1], for which the “circulating bDNA after toxin administration” value in the data set with baboons is listed as “insignificant levels”.

For the substance activated protein C [aPC], in the data set on Bacillus anthracis, the “blood cultures (bacterial colony counts)” value is “no effect; also recorded: no significant difference between groups”; the “decreases in fibrinogen (and in platelets)” value was “not mitigated”; the “liver and kidney function (ALT, AST, BUN, creatinine)” value was “markedly spared”; the “peak bDNA load (16S bacterial DNA, plasma qPCR)” value is “no significant effect”. For the same substance, in the data set on Bacillus anthracis, the “peak plasma mtDNA (CytB) level during anthrax bacteremia” value is recorded as “approximately 200 ng/mL”; the “plasma bDNA (16S-rDNA) level and fall off over time” value is “essentially identical fall off; also recorded: no effect; also recorded: does not affect”; the “plasma mtDNA levels after resolution of bacteremia” value is given as “mtDNA levels began falling after 24 hours; also recorded: plasma mtDNA levels decayed; also recorded: reduction in mtDNA”; the “respiratory rate (RR) / tachypnea” value is given as “RR remained normal; also recorded: prevents tachypnea; also recorded: RR was unchanged”. Further, in the data set with Bacillus anthracis, the survival entry is “the animals survived; also recorded: all these animals survived”.
